Measured values taken from patent US20060128613A1, “Melanocortin receptor ligands” (The Procter & Gamble Company, priority 2003, published 2006).

Test: Composition and Method Examples A-E: treatment of obese human subjects to incur or maintain weight loss
Type: in vivo
Method: An obese human subject weighing 130 kg is treated by this method to incur weight loss. Specifically, once each day for a period of 6 months, the subject is administered, via intravenous injection, 15 ml of an aqueous solution comprising the following:
An obese human subject weighing 150 kg is subjected to a weight-reduction program that achieves weight loss with reduced adiposity through a combination of a restricted diet and increased exercise. Specifically, once each day for a period of 6 months after weight loss, the subject is administered, via intravenous injection, 15 ml of an aqueous solution comprising the following:
An obese human subject weighing 165 kg is subjected to a weight reduction program that achieves weight loss through a combination of restricted diet, increased exercise and subcutaneous injection daily of 15 mls of an aqueous solution comprising:
Once the desired weight loss has been achieved, the patient's weight loss is maintained through continuation of the intravenous injection once each day for an additional period of 6 months.
An obese human subject weighing 140 kg is treated by the present method to incur weight loss. Specifically, they are treated with an implantable subcutaneous pump that delivers 0.1 mg/kg of the compound of Example 31 over a 24 hour period. The pump contains a solution of the compound dissolved in a solution of 50% propylene glycol and 50% sterile water.
An obese person weighing 150 kg is treated by this method to incur weight loss. Specifically, they are treated with an oral tablet taken twice daily containing 300 mg of the compound in Example 29.

3-(4-OHPh)propanoyl-(4-F-f)RW—NH2 [Example 88]
maintained weight loss and adiposity at the end of the treatment period (Example C: obese human 165 kg, diet, exercise and daily subcutaneous injection of 15 ml, 5 mg/ml, then injection once each day for additional 6 months): maintained weight loss and reduced adiposity

Ac-(L-4-Chloro-Phe)(D-4-Fluoro-Phe)RW—NH2 [Example 29]
weight loss and adiposity after 12 months treatment (Example E: obese person 150 kg, oral tablet 300 mg twice daily, 12 months): weight loss and reduced adiposity

Ac-(L-4-Chloro-Phe)fRW(N-Me-Gly)-NH2 [Example 31]
weight loss and adiposity after six-month treatment (Example D: obese human 140 kg, implantable subcutaneous pump delivering 0.1 mg/kg over 24 hours, six months): weight loss and reduced adiposity

Ac—YfHW—NH2 [Example 9]
maintenance of weight loss and adiposity at the end of the treatment period (Example B: obese human 150 kg after diet and exercise weight loss, intravenous injection once each day for 6 months, 15 ml, 5 mg/ml): maintenance of weight loss and reduced adiposity

Ac—YfRW—NH2 [Example 1]
weight loss at the end of the treatment period (Example A: obese human 130 kg, intravenous injection once each day for 6 months, 15 ml aqueous solution, 5 mg/ml): measurable weight loss
